{
  "source": "patent US20240002441A1",
  "about": "“PEPTIDES AND USES THEREOF IN MODULATION OF AMYLOID-BETA PROTEIN DEGRADING PROTEASES” (priority 2020, published 2024)",
  "key": {"SARS-CoV-2": {"test_system": "SARS-CoV-2", "type": "cell-based", "details": "post-treatment, Vero cells; for IL-6 expression compared to PBS: normalised to GAPDH"}, "MMP-2": {"target": "T1, MMP-2 (Homo sapiens, UniProt P08253)", "T1 construct": "purchased Sigma Aldrich SRP6270-10UG", "T1 sequence (P08253 110-660)": "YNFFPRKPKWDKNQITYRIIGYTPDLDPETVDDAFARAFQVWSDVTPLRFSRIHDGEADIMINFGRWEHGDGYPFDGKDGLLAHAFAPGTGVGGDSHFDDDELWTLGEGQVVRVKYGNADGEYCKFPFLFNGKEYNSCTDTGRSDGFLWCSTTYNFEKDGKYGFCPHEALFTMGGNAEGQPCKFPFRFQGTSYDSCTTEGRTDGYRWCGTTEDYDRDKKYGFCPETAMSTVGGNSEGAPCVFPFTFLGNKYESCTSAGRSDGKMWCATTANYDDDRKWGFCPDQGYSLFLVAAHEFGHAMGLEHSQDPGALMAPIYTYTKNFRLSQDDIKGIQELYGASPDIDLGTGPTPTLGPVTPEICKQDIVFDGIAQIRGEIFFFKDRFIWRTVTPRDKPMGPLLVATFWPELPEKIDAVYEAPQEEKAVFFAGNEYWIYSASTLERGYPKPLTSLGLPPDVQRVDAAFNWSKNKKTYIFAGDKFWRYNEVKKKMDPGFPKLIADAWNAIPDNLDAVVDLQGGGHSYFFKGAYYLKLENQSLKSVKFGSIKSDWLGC", "test": "QFS assay of Aβ-degrading enzymes: MMP-2 (Example 6)", "type": "biochemical", "details": "MMP2 0.50 ng/μL activated with p-aminophenylmercuric acetate", "protocol": "Plate reader-based enzyme assays were performed using a quenched fluorescent substrate (QFS) in a 96-well format using a SpectraMAX M4 Microplate reader (Molecular Devices). The increase in fluorescence following addition of QFS (40 μM) was taken as evidence of enzyme activity. Fluorescence was monitored over 2 h at 37° C. using κEx=320 nm and λEm=405 nm. Assays were conducted in black 96-well plates. Specific enzyme activity was expressed as a rate of substrate cleavage calculated using a standard curve of 7-methoxy-coumarin-4-acetic acid.\nIn all plate reader-based enzyme assays using QFS, the reaction rate (μmol of substrate cleaved/min) was calculated using linear regression analysis (GraphPad Prism software version 8.01). The reaction rates calculated were used to generate the enzyme kinetic parameters Vmax and Km through non-linear regression analysis (GraphPad Prism software, version 8.01; Michaelis-Menten equation). Where indicated, enzyme activity in the presence of peptide was expressed as a % of the enzyme alone. Data were expressed as mean±SEM and statistical significance was determined using t-tests or one-way ANOVAs followed by Tukey's post-hoc test. P<0.05 was considered as statistically significant. […]\nSEQ ID NO:2 was assessed in a QFS assay against enzymes NEP, ECE1, ECE2, ACE1, ACE2, IDE and MMP-2 using the method in Example 2 and the following procedure. […]"}, "ACE2": {"target": "T2, ACE2 (Homo sapiens, UniProt Q9BYF1)", "T2 construct": "purchased R & D systems 933-ZN-010", "T2 sequence (Q9BYF1 18-805)": "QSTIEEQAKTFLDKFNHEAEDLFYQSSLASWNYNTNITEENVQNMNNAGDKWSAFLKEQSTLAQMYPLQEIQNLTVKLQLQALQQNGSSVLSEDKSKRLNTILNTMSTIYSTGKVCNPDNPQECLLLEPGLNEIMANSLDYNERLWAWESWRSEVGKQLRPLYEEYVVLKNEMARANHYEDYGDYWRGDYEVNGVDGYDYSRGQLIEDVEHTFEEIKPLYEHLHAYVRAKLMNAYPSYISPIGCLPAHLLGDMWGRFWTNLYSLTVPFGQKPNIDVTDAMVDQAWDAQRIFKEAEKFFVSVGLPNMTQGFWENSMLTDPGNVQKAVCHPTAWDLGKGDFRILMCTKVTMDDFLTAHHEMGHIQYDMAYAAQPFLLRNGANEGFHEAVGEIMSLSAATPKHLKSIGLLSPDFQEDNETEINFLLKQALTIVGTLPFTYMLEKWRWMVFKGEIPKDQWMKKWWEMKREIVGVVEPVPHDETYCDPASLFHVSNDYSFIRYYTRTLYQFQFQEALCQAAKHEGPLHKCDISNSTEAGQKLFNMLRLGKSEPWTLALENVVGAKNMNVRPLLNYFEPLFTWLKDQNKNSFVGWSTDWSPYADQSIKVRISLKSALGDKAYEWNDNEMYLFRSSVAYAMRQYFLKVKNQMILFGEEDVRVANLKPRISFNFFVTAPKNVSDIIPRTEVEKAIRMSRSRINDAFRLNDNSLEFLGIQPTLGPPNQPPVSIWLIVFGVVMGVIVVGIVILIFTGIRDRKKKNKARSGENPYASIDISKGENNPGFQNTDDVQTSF", "test": "Cleavage of synthetic Ang II to Ang 1-7 by ACE2, LCMS (Example 8)", "type": "biochemical", "details": "rhACE2 0.1 ng/μL, peptide 1.7 μM, Ang II 0.02 μg/μL", "protocol": "Samples were analysed by LC-MS/MS using a quadrupole TOF mass spectrometer (MicroTOFq, Bruker Daltonics, Bremen, Germany) coupled online with a 1200 series nano-HPLC (Agilent technologies, Santa Clara, CA, USA). Samples were injected onto a zorbax 300SB reversed phase trap column with 95% solvent A (0.1% formic acid) at a flow rate of 10 μL/minute. The peptides were eluted over a 10-min gradient to 70% solvent B (80% acetonitrile, 0.1% formic acid) and separated on a 15-cm, 75-μmID zorbax 300SB nanocolumn. The eluent was nebulised and ionised using the Bruker nano-ESI source with a capillary voltage of 4500 V, dry gas at 180° C., flow rate of 5 L/minute and nebuliser gas pressure at 300 mbar. The MS acquisition was in selected ion monitoring mode after selected ion extraction of the MS spectra. Prior to analysis, the qTOF mass spectrometer was calibrated using a 1:50 dilution tuning mix (Agilent technologies, Santa Clara, CA, USA). Data from MS run were processed in Skyline version 19.1.0.193 (Uni. Of Washington, WA, USA) to perform ion chromatogram extractions and peak integrations.\nrhACE2 (0.1 ng/μL) was incubated with SEQ ID NO:2 (1.7 μM) for 1 h at 37° C. Ang II (0.02 μg/μL) was then added to the reaction mixture. Aliquots of equal volume were collected at 0, 3, 6 and 24 h. […] The samples were analysed by LC-MS/MS using the method in Example 7."}},
  "note": "Like-named read-outs stand apart in the source and are kept apart here.",
  "data": [
    {"substance": "H-SLFELGKMIL-NH2 [SEQ ID NO:2, H2N-SLFELGKMIL-NH2]", "values": [
      {"measurement": "viral RNA compared to PBS", "setting": "SARS-CoV-2; 200 ng/μL", "result": "significantly reduced"},
      {"measurement": "IL-6 expression compared to PBS", "setting": "SARS-CoV-2; 200 ng/μL", "result": "significantly reduced"},
      {"measurement": "viral RNA compared to PBS", "setting": "SARS-CoV-2; 400 ng/μL", "result": "significantly reduced"},
      {"measurement": "viral titre compared to PBS", "setting": "SARS-CoV-2; 400 ng/μL", "result": "significantly reduced"},
      {"measurement": "IL-6 expression compared to PBS", "setting": "SARS-CoV-2; 400 ng/μL", "result": "significantly reduced"},
      {"measurement": "activity of MMP-2 in the presence of peptide", "setting": "MMP-2", "result": "0.7±0.2 μmol of substrate cleaved"},
      {"measurement": "effect on the activity of MMP-2", "setting": "MMP-2", "result": "did not affect"},
      {"measurement": "production of Ang 1-7", "setting": "ACE2", "result": "165±12 % of ACE2 alone"},
      {"measurement": "ACE2-mediated breakdown of Ang II over 24 h, decrease in peak area", "setting": "ACE2; 24 h", "result": "83±5 % of initial"}
    ]}
  ]
}
